The source of these data is ChEMBL document CHEMBL1140606, “Green tea catechins inhibit bacterial DNA gyrase by interaction with its ATP binding site” (J Med Chem, 2007).

Values after ≈ are worked out from the molar mass of the structure shown. Active and inactive are the calls of the source. The rule behind the calls is not given here.

Assay [1] deals with Escherichia coli. The experiment in a line: Displacement of picogreen from Escherichia coli DNA gyrase B.
The subject of assay [2] is Escherichia coli. The assay can be described thus: Inhibition of Escherichia coli DNA gyrase B ATPase activity.
Assay [3] can be described thus: Displacement of fluorescent quercetin from Escherichia coli BL21 (DE3) recombinant DNA gyrase B G24.
The test system of assay [4] is Escherichia coli. The experiment in a line: Inhibition of Escherichia coli DNA gyrase B supercoiling activity upto 100 uM.
Assay [5] concerns Escherichia coli. The assay can be described thus: Displacement of ethidium bromide from Escherichia coli DNA gyrase B.
For assay [6], the system named is Escherichia coli. The assay can be described thus: Antibacterial activity against Escherichia coli. The format is functional.
Assay [7] is described as follows: (§1) Inhibition of Escherichia coli DNA gyrase B supercoiling activity.
Assay [8] concerns Escherichia coli. The description is as §1.

For `Oc1cc(O)c2c(c1)O[C@H](c1cc(O)c(O)c(O)c1)[C@H](O)C2` [EPIGALLOCATECHIN], the outcome in the assay with Escherichia coli [1], with Escherichia coli [4] and with Escherichia coli [5] was inactive. Further, the result in the assay on Escherichia coli [2] was Active. Besides, the Kd in assay [3] was 34 µM. Inhibition of growth in the assay with Escherichia coli [6] (MIC) required 100 µM (≈ 30.6 µg/mL).

In the case of `O=c1c(O)c(-c2ccc(O)c(O)c2)oc2cc(O)cc(O)c12` [QUERCETIN], the Kd in assay [3] was found to be 15 µM.

In assay [7], `O=C(O[C@@H]1Cc2c(O)cc(O)cc2O[C@@H]1c1cc(O)c(O)c(O)c1)c1cc(O)c(O)c(O)c1` [EPIGALOCATECHIN GALLATE] gave an IC50 of 50 µM. Further, the outcome with Escherichia coli [1] and in the assay with Escherichia coli [5] was inactive. In addition, the outcome with Escherichia coli [2] was Active. In addition, the Kd in assay [3] was 23 µM. The same compound displayed an MIC against Escherichia coli [6] of 10 µM (≈ 4.58 µg/mL).

In turn, `O=C(O[C@@H]1Cc2c(O)cc(O)cc2O[C@@H]1c1ccc(O)c(O)c1)c1cc(O)c(O)c(O)c1` [EPICATECHIN GALLATE] came in with an IC50 in assay [7] of 50 µM. Further, the outcome with Escherichia coli [1] and in the assay with Escherichia coli [5] was inactive. The outcome with Escherichia coli [2] was Active. Besides, the Kd in assay [3] worked out at 36 µM. Further, in the assay on Escherichia coli [6], the MIC amounted to 25 µM (≈ 11.1 µg/mL).

In the case of `Oc1cc(O)c2c(c1)O[C@H](c1ccc(O)c(O)c1)[C@H](O)C2` [(-)-EPICATECHIN], the outcome in the assay with Escherichia coli [8], in the assay on Escherichia coli [1], with Escherichia coli [2], with Escherichia coli [4] and with Escherichia coli [5] was inactive. In addition, the Kd in assay [3] came out at 54 µM. In the assay on Escherichia coli [6], this compound showed an MIC of over 1000 µM.
